Experimental data: patent US20210085640A1, “ACYLATED CATECHIN POLYPHENOLS AND METHODS OF THEIR USE FOR THE TREATMENT OF CANCER” (Flagship Pioneering Innovations V, Inc., priority 2018, published 2021)

What was measured:
[1] = Fecal Incubation Stability; assay type: in vitro ADME; conditions: fecal slurry, anaerobic, 1 or 10 μM
Protocol: Fecal Incubation Stability. This assay was used to assess the stability of an acylated active agent in a large intestine. All experiments were performed in an anaerobic chamber containing 90% nitrogen, 5% hydrogen and 5% carbon dioxide. Fecal matter in a slurry (15% VW is added to 96 well plates containing YCFA media or other suitable media (1.6 mL). Compounds were added to each individual well to reach a final analyte concentration of 1 or 10 μM, and the material was mixed by pipetting. At set time points a sample was removed, quenched with acetonitrile, and analyzed by LC/MS.

[2] = Stability in Simulated Intestinal Fluid (SIF); assay type: in vitro ADME; conditions: for Assay 2 (SIF) (% @ Remaining 4 hours): SIF pH 6.7 with pancreatin, 1 μM, 37° C.; for selective delivery to the upper intestine: conclusion drawn from Table 1 (SGF and SIF stability)
Protocol: SIF Stability of acylated active agents in Simulated Intestinal Fluid (SIF). This assay was used to assess the stability of an acylated active agent in a small intestine.
Phosphate buffer was prepared by dissolving 0.42 g of sodium hydroxide pellets and 3.95 g of monobasic sodium phosphate monohydrate and 6.19 g of sodium chloride in ultrapure water (MilliQ®, Millipore Sigma, Darmstadt, Germany). The pH was adjusted to 6.7 using aq. HCl and aq. NaOH, as necessary, and the solution was diluted with ultrapure water to produce 1 L of the pH 6.7 buffer.
112 mg FaSSIF powder (Biorelevant™, London, UK) was dissolved in 50 mL of the pH 6.7 buffer. 2 to 3 mL of the resulting solution were then added to 500 mg pancreatin (Millipore Sigma, Darmstadt, Germany). The resulting mixture was agitated by finger tapping the vessel containing the mixture until milky suspension formed. At this time, the remainder of the 50 mL FaSSiF/pH 6.7 buffer solution was added. The resulting suspension was flipped upside down 10 times to produce SIF, which was used fresh.
Test compounds were dissolved in DMSO stock to 1 mM. An aliquot of the DMSO stock solution was removed and diluted in the SIF media in 15 mL falcon tubes to produce a mixture with a tested compound concentration of 1 μM. A 1 mL aliquot was immediately removed and diluted once with 1 volume of acetonitrile for T0 timepoint. The mixture was sealed and agitated at 37° C. in an incubator. Aliquots (1 mL) were removed at regular intervals and immediately quenched by the addition of 1 volume of acetonitrile. The resulting samples were analyzed by LC/MS to determine degradation rates.

[3] = Stability in Simulated Gastric Fluid (SGF); assay type: in vitro ADME; conditions: SGF pH 1.6 with pepsin, 1 μM, 37° C.
Summary of the method: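 Compound at 1 μM (from 1 mM DMSO stock) incubated at 37 °C in SGF, pH 1.6 NaCl/HCl buffer with FaSSIF powder and 0.1 mg/mL pepsin. Aliquots quenched with an equal volume of acetonitrile at T0 and regular intervals; degradation rate by LC/MS.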

CD4^+CD25^+ Treg cells = test: In vivo induction of CD4+CD25+ Treg cells in high-fat diet fed mice; conditions: C57BL/6 mice fed a high-fat diet; 6% in diet ad libitum; compared to EGCG, acetate, or their combination as separate compounds
Source text: Acylated catechin polyphenols disclosed herein may be useful in modulating cancer markers and for treating cancer.

SMILES	Assay 3 (% Remaining at 24 h) [1]	Assay 2 (SIF) (% @ Remaining 4 hours) [2]	Assay 1 (SGF) (% Remaining @ 1 hours) [3]	selective delivery to the upper intestine [2]	induction of CD4^+CD25^+ Treg cells (CD4^+CD25^+ Treg cells)
CCCC(=O)Oc1cc(OC(=O)CCC)c2c(c1)O[C@H](c1cc(OC(=O)CCC)c(OC(=O)CCC)c(OC(=O)CCC)c1)[C@H](OC(=O)c1cc(OC(=O)CCC)c(OC(=O)CCC)c(OC(=O)CCC)c1)C2 [Compound 1, [(2R,3R)-5,7-di(butanoyloxy)-2-[3,4,5-tri(butanoyloxy)phenyl]chroman-3-yl] 3,4,5-tri(butanoyloxy)benzoate]	C (>75% of the tested compound remaining)	C (>75% of the tested compound remaining)	C (>75% of the tested compound remaining)		
CC(=O)Oc1cc(OC(C)=O)c2c(c1)O[C@H](c1cc(OC(C)=O)c(OC(C)=O)c(OC(C)=O)c1)[C@H](OC(=O)c1cc(OC(C)=O)c(OC(C)=O)c(OC(C)=O)c1)C2 [Compound 2, [(2R,3R)-5,7-diacetoxy-2-(3,4,5-triacetoxyphenyl)chroman-3-yl] 3,4,5-triacetoxybenzoate]	A (<25% of the tested compound remaining)	A (<25% of the tested compound remaining)	C (>75% of the tested compound remaining)	can be selectively delivered to the upper intestine	synergistic induction
CCC(=O)Oc1cc(OC(=O)CC)c2c(=O)c(OC(=O)CC)c(-c3ccc(OC(=O)CC)c(OC(=O)CC)c3)oc2c1 [Compound 14, [4-[4-oxo-3,5,7-tri(propanoyloxy)chromen-2-yl]-2-propanoyloxy-phenyl] propanoate]	C (>75% of the tested compound remaining)	C (>75% of the tested compound remaining)	C (>75% of the tested compound remaining)		
CCCC(=O)O[C@@H]1[C@@H](OC(=O)CCC)[C@@H](Oc2ccc(N)cc2C(=O)O)OC[C@@H]1OC(=O)CCC [Compound 17, 5-amino-2-[(2R,3R,4S,5S)-3,4,5-tri(butanoyloxy)tetrahydropyran-2-yl]oxy-benzoic acid]	C (>75% of the tested compound remaining)	A (<25% of the tested compound remaining)	C (>75% of the tested compound remaining)	can be selectively delivered to the upper intestine	
CC(=O)OC[C@H]1O[C@@H](Oc2c(C)c(C)c3c(c2C)CC[C@@](C)(CCC[C@H](C)CCC[C@H](C)CCCC(C)C)O3)[C@H](OC(C)=O)[C@@H](OC(C)=O)[C@@H]1OC(C)=O [Compound 19, [(2R,3R,4S,5R,6S)-3,4,5-triacetoxy-6-[(2R)-2,5,7,8-tetramethyl-2-[(4R,8R)-4,8,12-trimethyltridecyl]chroman-6-yl]oxy-tetrahydropyran-2-yl]methyl acetate]	C (>75% of the tested compound remaining)	C (>75% of the tested compound remaining)	C (>75% of the tested compound remaining)		
